Test results reported in article PMC11345841, “Exploring 2-Sulfonylpyrimidine Warheads as Acrylamide Surrogates for Targeted Covalent Inhibition: A BTK Story” (Journal of Medicinal Chemistry, 2024).
Where two headings read alike, the source gives them in different places.

Key:
Assay in all cases: KINOMEscan ScanTK
Format in all cases: binding
[1] = target: T1, BRK (Homo sapiens, UniProt Q13882)
T1 construct: purchased Eurofins DiscoverX KINOMEscan (scanTK)

[2] = target: T2, TNK2 (Homo sapiens, UniProt Q07912)
T2 construct: purchased Eurofins DiscoverX KINOMEscan (scanTK)

[3] = target: T3, ABL1(E255K)-phosphorylated (Homo sapiens, UniProt P00519, E255K)
T3 construct: purchased Eurofins DiscoverX KINOMEscan (scanTK)

[4] = target: T4, VEGFR2 (Homo sapiens, UniProt P35968)
T4 construct: purchased Eurofins DiscoverX KINOMEscan (scanTK)

[5] = target: T5, YES (Homo sapiens, UniProt P07947)
T5 construct: purchased Eurofins DiscoverX KINOMEscan (scanTK)

[6] = target: T6, SYK (Homo sapiens, UniProt P43405)
T6 construct: purchased Eurofins DiscoverX KINOMEscan (scanTK)

[7] = target: T7, EPHB2 (Homo sapiens, UniProt P29323)
T7 construct: purchased Eurofins DiscoverX KINOMEscan (scanTK)
T7 sequence (P29323 19-1055): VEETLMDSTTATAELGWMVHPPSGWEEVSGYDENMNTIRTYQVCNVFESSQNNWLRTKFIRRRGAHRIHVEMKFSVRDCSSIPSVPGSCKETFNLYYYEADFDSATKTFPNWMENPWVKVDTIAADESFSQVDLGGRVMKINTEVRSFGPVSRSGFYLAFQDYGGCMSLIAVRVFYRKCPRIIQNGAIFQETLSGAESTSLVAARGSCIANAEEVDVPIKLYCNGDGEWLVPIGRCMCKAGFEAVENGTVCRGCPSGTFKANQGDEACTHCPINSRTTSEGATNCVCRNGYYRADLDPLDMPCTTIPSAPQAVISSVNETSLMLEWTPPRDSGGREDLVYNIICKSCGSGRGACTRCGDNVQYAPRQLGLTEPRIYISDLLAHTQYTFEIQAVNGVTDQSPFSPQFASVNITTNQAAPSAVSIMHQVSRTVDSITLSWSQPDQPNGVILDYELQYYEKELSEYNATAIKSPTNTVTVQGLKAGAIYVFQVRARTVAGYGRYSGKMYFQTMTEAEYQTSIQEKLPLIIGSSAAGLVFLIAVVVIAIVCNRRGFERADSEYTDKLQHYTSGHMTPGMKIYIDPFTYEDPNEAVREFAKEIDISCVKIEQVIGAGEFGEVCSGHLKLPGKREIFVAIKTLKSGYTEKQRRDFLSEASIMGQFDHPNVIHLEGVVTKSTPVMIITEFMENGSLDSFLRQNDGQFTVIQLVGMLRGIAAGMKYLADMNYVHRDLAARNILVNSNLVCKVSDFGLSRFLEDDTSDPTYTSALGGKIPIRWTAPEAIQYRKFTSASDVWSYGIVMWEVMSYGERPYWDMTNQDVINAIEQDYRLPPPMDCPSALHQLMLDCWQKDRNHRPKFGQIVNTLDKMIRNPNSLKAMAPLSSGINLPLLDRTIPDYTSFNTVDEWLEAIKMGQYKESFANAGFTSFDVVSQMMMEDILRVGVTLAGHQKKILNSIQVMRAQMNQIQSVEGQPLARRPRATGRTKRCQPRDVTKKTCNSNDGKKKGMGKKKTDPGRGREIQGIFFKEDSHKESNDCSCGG

[8] = target: T8, SRC (Homo sapiens, UniProt P12931)
T8 construct: purchased Eurofins DiscoverX KINOMEscan (scanTK)

[9] = target: T9, TIE1 (Homo sapiens, UniProt P35590)
T9 construct: purchased Eurofins DiscoverX KINOMEscan (scanTK)

[10] = target: T10, ABL1(Y253F)-phosphorylated (Homo sapiens, UniProt P00519, Y253F)
T10 construct: purchased Eurofins DiscoverX KINOMEscan (scanTK)

[11] = target: T11, FAK (Homo sapiens, UniProt Q05397)
T11 construct: purchased Eurofins DiscoverX KINOMEscan (scanTK)

[12] = target: T12, FLT3-autoinhibited (Homo sapiens, UniProt P36888)
T12 construct: purchased Eurofins DiscoverX KINOMEscan (scanTK)
T12 sequence (P36888 27-993): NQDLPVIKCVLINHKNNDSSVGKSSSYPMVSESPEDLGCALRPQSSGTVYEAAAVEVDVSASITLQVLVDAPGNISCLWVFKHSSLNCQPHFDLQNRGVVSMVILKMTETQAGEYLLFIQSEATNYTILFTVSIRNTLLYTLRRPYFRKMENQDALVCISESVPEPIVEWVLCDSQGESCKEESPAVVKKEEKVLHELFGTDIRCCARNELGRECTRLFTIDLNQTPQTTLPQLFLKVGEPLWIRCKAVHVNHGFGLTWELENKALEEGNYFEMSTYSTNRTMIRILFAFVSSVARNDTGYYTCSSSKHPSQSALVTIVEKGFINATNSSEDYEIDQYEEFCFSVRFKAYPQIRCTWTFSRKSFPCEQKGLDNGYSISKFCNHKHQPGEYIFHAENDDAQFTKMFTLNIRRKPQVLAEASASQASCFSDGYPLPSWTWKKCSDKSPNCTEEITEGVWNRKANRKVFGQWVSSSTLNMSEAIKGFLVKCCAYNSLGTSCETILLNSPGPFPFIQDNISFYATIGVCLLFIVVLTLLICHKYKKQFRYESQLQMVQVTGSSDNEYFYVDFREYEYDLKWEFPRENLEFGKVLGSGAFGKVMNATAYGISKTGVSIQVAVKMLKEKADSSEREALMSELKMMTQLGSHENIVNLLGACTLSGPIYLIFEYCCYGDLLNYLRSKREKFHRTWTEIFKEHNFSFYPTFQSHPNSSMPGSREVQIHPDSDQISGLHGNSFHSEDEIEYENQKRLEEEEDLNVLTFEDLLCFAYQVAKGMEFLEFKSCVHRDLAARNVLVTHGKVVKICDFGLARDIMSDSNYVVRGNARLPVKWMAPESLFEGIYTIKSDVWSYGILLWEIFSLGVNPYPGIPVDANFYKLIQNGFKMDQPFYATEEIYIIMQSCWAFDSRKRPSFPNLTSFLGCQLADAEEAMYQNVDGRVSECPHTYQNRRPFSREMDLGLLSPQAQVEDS

T1 sequence (Q13882 whole entry): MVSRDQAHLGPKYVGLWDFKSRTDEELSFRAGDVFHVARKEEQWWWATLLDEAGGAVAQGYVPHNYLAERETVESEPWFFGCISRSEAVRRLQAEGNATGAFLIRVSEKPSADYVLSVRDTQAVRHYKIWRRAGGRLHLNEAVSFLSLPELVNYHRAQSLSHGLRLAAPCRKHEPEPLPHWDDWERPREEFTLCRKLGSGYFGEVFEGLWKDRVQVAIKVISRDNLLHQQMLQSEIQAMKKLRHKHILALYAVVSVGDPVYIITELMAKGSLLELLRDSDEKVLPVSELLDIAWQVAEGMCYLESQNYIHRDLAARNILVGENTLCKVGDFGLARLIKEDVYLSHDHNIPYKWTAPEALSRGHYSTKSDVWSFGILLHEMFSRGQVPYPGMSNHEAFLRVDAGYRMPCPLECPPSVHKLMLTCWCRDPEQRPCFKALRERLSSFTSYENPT
T11 sequence (Q05397 whole entry): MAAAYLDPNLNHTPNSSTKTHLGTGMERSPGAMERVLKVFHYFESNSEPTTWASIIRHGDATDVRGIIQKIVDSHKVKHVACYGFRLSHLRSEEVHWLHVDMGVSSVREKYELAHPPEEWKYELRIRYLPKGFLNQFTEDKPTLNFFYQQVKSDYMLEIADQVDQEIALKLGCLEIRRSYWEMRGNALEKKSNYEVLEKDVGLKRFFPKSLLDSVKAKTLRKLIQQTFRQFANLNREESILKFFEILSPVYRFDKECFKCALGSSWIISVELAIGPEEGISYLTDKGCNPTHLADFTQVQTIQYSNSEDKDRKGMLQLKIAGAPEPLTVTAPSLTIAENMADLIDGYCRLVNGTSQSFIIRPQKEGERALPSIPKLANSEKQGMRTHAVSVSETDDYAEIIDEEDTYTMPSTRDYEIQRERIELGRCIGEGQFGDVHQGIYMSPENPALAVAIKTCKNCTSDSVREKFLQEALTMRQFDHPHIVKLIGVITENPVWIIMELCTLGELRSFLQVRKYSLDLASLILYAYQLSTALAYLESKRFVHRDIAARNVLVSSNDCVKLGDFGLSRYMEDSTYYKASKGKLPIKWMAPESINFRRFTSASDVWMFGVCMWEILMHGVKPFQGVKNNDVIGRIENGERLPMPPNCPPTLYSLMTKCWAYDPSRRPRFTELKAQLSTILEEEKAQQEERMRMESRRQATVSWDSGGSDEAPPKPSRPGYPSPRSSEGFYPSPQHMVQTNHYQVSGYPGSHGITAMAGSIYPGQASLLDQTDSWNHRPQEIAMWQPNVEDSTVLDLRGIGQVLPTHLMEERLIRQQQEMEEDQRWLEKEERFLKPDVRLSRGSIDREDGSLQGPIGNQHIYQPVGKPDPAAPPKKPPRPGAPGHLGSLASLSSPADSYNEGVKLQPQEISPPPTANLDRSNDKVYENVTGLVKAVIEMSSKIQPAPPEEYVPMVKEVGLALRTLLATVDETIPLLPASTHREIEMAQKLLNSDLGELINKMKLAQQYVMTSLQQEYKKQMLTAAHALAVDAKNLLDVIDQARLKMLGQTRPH
T8 sequence (P12931 whole entry): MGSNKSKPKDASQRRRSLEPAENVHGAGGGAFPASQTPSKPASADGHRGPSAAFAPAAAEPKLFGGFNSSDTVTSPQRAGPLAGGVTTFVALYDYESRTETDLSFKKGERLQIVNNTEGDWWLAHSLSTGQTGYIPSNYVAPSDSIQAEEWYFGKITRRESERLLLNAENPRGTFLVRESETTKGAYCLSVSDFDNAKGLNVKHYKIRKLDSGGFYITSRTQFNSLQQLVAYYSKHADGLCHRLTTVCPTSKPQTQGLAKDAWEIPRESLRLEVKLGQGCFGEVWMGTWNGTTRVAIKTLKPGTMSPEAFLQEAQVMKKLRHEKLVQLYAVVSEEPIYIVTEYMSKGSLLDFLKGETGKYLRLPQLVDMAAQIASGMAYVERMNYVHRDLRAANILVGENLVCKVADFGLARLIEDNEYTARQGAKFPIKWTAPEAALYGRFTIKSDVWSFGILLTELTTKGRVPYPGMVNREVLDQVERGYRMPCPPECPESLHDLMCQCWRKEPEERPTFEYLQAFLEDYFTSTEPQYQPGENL
T5 sequence (P07947 whole entry): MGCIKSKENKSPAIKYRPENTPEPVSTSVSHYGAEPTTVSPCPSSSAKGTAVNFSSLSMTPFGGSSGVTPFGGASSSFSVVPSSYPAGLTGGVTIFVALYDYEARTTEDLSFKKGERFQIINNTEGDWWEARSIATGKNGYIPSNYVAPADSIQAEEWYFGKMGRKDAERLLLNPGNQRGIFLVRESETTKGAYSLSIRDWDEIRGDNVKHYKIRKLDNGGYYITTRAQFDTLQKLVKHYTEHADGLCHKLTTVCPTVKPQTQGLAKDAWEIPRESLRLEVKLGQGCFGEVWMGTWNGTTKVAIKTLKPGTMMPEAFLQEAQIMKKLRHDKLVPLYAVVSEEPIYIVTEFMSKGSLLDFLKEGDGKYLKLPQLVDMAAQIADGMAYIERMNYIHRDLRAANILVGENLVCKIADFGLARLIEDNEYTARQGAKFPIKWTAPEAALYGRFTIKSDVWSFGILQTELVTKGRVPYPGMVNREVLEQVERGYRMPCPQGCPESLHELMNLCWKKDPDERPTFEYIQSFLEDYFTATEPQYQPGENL
T2 sequence (Q07912 whole entry): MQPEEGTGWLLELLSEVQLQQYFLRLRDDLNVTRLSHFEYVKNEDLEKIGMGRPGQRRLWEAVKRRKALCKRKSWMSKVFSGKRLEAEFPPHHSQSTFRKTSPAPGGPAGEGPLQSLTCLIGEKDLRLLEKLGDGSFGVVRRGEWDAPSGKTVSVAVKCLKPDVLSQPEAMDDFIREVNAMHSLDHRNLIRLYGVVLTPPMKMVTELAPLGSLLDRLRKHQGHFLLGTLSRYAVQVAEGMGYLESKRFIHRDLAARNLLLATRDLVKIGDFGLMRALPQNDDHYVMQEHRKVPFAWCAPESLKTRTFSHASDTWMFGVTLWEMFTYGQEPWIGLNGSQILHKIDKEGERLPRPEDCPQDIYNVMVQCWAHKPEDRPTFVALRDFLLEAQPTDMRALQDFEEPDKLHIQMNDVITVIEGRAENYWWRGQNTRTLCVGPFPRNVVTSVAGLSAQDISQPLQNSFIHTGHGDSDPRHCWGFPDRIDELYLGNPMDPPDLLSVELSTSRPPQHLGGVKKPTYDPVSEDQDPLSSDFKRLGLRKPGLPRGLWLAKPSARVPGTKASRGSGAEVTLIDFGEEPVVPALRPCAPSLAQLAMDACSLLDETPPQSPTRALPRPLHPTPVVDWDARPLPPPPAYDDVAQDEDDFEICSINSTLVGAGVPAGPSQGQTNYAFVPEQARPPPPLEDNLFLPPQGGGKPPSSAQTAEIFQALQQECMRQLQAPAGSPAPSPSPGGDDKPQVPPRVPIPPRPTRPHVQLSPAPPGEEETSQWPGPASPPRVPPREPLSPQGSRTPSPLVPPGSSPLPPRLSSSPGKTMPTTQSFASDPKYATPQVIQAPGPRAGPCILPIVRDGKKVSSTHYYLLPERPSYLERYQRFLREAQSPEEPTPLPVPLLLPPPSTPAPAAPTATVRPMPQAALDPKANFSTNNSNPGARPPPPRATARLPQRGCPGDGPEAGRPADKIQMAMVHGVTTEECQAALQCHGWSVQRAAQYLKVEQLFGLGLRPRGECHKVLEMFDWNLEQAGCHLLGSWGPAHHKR
T9 sequence (P35590 22-1138): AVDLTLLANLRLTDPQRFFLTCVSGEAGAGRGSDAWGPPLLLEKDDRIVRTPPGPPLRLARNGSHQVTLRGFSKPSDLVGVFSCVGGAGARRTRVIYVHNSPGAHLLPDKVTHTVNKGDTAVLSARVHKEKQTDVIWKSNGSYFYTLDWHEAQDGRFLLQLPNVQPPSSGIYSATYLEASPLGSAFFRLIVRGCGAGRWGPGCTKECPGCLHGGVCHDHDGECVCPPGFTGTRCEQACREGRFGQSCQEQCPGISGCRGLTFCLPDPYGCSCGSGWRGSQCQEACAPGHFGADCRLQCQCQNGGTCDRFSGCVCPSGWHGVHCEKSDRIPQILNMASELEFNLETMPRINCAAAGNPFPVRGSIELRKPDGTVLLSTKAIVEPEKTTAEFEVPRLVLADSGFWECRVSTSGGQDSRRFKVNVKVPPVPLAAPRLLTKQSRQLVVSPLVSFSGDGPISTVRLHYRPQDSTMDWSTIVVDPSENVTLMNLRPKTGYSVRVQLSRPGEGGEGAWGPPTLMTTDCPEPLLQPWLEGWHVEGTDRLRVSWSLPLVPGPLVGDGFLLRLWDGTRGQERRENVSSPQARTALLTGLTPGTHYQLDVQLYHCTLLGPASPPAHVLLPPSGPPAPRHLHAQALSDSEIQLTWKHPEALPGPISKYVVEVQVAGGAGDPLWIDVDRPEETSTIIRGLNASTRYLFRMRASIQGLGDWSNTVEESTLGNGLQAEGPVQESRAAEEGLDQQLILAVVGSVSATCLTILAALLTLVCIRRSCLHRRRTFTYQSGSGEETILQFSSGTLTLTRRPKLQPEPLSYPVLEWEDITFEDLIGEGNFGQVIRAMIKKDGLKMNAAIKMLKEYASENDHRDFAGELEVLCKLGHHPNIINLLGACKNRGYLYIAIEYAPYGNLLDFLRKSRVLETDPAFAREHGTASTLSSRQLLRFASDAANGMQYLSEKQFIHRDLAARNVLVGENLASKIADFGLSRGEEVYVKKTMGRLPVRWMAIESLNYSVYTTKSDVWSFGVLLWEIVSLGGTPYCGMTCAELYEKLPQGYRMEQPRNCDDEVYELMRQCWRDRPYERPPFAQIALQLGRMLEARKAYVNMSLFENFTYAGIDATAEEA

Work on CNC(=O)c1cnc(S(C)(=O)=O)nc1N1CCCC(n2nc(-c3ccc(Oc4ccccc4)cc3)c3c(N)ncnc32)C1 (stereo not shown) [Compound 8d, 4-(3-(4-Amino-3-(4-phenoxyphenyl)-1H-pyrazolo[3,4-d]pyrimidin-1-yl)piperidin-1-yl)-N-methyl-2-(methylsulfonyl)pyrimidine-5-carboxamide] yielded a difference in %Control relative to compound Ib at 1 µM ([1]; @1000nM) of 13.7%, a remaining binding at 1 µM ([1]; @1000nM, read-out: %Control) of 15% and a remaining binding at 1 µM ([1]; read-out: %Control @1000nM) of 15%. It also gave a remaining binding at 1 µM ([2]; @1000nM, read-out: %Control) of 100%, a remaining binding at 1 µM ([2]; read-out: %Control @1000nM) of 100% and a difference in %Control from reference Ib at 1 µM ([3]; @1000nM, read-out: % difference (compound - Ib %Control)) of 26%. The remaining binding at 1 µM ([3]; @1000nM, read-out: %Control) was 90%, the remaining binding at 1 µM ([3]; read-out: %Control @1000nM) was 90% and the remaining binding at 1 µM ([4]; @1000nM, read-out: %Control) was 88%. It also gave a remaining binding at 1 µM ([4]; read-out: %Control @1000nM) of 88%, a remaining binding at 1 µM ([5]; @1000nM, read-out: %Control) of 11% and a remaining binding at 1 µM ([5]; read-out: %Control @1000nM) of 11%. It also gave a difference in %Control versus compound Ib at 1 µM ([6]; @1000nM) of -2%, a remaining binding at 1 µM ([6]; @1000nM, read-out: %Control) of 89% and a remaining binding at 1 µM ([6]; read-out: %Control @1000nM) of 89%. The %Control difference from compound Ib at 1 µM ([7]; @1000nM) was -1%, the remaining binding at 1 µM ([7]; @1000nM, read-out: %Control) was 99% and the remaining binding at 1 µM ([7]; read-out: %Control @1000nM) was 99%. It also gave a remaining binding at 1 µM ([8]; @1000nM, read-out: %Control) of 43%, a remaining binding at 1 µM ([8]; read-out: %Control @1000nM) of 43% and a remaining binding at 1 µM ([9]; @1000nM, read-out: %Control) of 69%. For the same molecule, the remaining binding at 1 µM ([9]; read-out: %Control @1000nM) was 69%, the difference in %Control from compound Ib at 1 µM ([10]; @1000nM) was 3% and the remaining binding at 1 µM ([10]; @1000nM, read-out: %Control) was 80%. The remaining binding at 1 µM ([10]; read-out: %Control @1000nM) was 80%, the difference in %Control versus compound Ib at 1 µM ([11]; @1000nM) was 0% and the remaining binding at 1 µM ([11]; @1000nM, read-out: %Control) was 100%. The remaining binding at 1 µM ([11]; read-out: %Control @1000nM) was 100%, the difference in %Control vs compound Ib at 1 µM ([12]; @1000nM) was 3% and the remaining binding at 1 µM ([12]; @1000nM, read-out: %Control) was 100%. For the same molecule, the remaining binding at 1 µM ([12]; read-out: %Control @1000nM) was 100%.
